Data from patent US11519913B2, “Metabolic disorder target” (University of Pittsburgh—Of the Commonwealth System of …, priority 2016, dated 2022).

System: kinases
Experiment: Streamlined CETSA / dMS workflow with staurosporine
Type: binding
Details: staurosporine treated vs untreated samples
Excerpt: Initial experiments were designed to employ the ATP inhibitor staurosporine. Staurosporine is well documented as binding several different kinases, and so offers an a priori known binding event for study and method workup. The workflow for CETSA was streamlined. These improvements are based on two advantages: the use of factory made long heated columns for excellent chromatographic, and therefore sample to sample reproducibility, and the cloud computing platform, Chorus, which allows for the alignment and quantification of hundreds of thousands of mass spectrometric signals without the need to first identify said signals, see U.S. Pat. No. 6,906,320 “Mass Spectrometry Data Analysis Techniques,” incorporated herein by reference.
In the staurosporine analysis, the dMS workflow detected 270,822 features that were associated with 108,594 isotope groups. […] An important and distinguishing feature of the dMS workflow is that results are ranked on the basis of the quantitative data, and significant features may then be identified directly by reanalysis of the sample and acquisition of a MS2 spectrum with a retention time and m/z that matches the features of interest. This quantify first, identify second strategy greatly enhances the depth and precision of proteomic analysis compared to workflows that emphasize peptide identification rates. […]

## CN[C@@H]1C[C@H]2O[C@@](C)([C@@H]1OC)n1c3ccccc3c3c4c(c5c6ccccc6n2c5c31)C(=O)NC4 [staurosporine]
  Features at significance lower than p<0.0001, drug treated versus vehicle, that belong to kinases: 13 out of 16 belonged to kinases
